Results on 5 compounds are retold here after ChEMBL document CHEMBL1268825, “Inhibitory activity of four demethoxy fluorinated anthracycline analogs against five human-tumor cell lines” (2010).

In brackets after ≈: the same amount, converted by molar mass. Activity calls are given as the source filed them. No cut-off for these calls is given here.

Format in all cases: functional
In assay [1] the test system is MCF7. As to the kind of experiment: Cytotoxicity against human MCF7 cells after 24 hrs by SRB assay. The conditions noted are these: MCF7, 24 h, read-out: ED50 (the source's name). Background: Sulforhodamine B stains cellular protein and so reports cell mass.
Assay [2] deals with RPMI. Briefly: (§1) Cytotoxicity against human RPMI cells after 24 hrs by SRB assay.
The test system of assay [3] is U-251. As to the kind of experiment: Cytotoxicity against human U251 cells after 24 hrs by SRB assay. The conditions noted are these: for EC50: U-251, 24 h, read-out: ED50 (the source's name).
Assay [4] relates to A549. As to the kind of experiment: Cytotoxicity against human A549 cells after 24 hrs by SRB assay. The conditions noted are these: A549, 24 h, read-out: ED50 (the source's name).
A short description of assay [5]: as §1. Particulars: read-out: ED50 (the source's name).
The subject of assay [6] is HT-29. Briefly: Cytotoxicity against human HT-29 cells after 24 hrs by SRB assay. The conditions noted are these: HT-29, 24 h, read-out: ED50 (the source's name).

In the case of `C[C@@H]1O[C@@H](O[C@H]2C[C@](O)(C(=O)CBr)Cc3c(O)c4c(c(O)c32)C(=O)c2ccccc2C4=O)[C@H](F)[C@H](O)[C@@H]1O`, the figures for the EC50 in assay [1] and in assay [4] were 0.4 µg/mL (≈ 0.672 µM) and 0.6 µg/mL (≈ 1.01 µM), respectively. Also, the ED50 result in assay [2] and in assay [3] was “inactive” each time.
In the case of `C[C@@H]1O[C@@H](O[C@H]2C[C@](O)(C(=O)CO)Cc3c(O)c4c(c(O)c32)C(=O)c2ccccc2C4=O)[C@H](F)[C@H](O)[C@@H]1O`, the EC50 in assay [1] was 0.02 µg/mL (≈ 0.0376 µM); in assay [5], 0.02 µg/mL (≈ 0.0376 µM); in assay [3] it was 0.02 µg/mL (≈ 0.0376 µM); in assay [4] it was 0.008 µg/mL (≈ 0.015 µM); in assay [6] it was greater than 0.001 µg/mL.
Regarding `CC(=O)[C@]1(O)Cc2c(O)c3c(c(O)c2[C@@H](O[C@@H]2O[C@@H](C)[C@@H](O)[C@@H](O)[C@H]2F)C1)C(=O)c1ccccc1C3=O`, the EC50 in assay [1] was 0.03 µg/mL (≈ 0.0581 µM); in assay [5], 0.03 µg/mL (≈ 0.0581 µM); in assay [3], 0.04 µg/mL (≈ 0.0774 µM); in assay [4], 0.008 µg/mL (≈ 0.0155 µM).
Consider `CC(=O)O[C@H]1[C@@H](F)[C@H](O[C@H]2C[C@](O)(C(C)=O)Cc3c(O)c4c(c(O)c32)C(=O)c2ccccc2C4=O)O[C@@H](C)[C@H]1OC(C)=O`, for which the EC50 in assay [1] was 0.06 µg/mL (≈ 0.0999 µM); in assay [5] it was 0.05 µg/mL (≈ 0.0833 µM); in assay [3] it was 0.1 µg/mL (≈ 0.167 µM); in assay [4] it was 0.07 µg/mL (≈ 0.117 µM); in assay [6] it was 0.001 µg/mL (≈ 0.00167 µM).
Consider `COc1cccc2c1C(=O)c1c(O)c3c(c(O)c1C2=O)C[C@@](O)(C(=O)CO)C[C@@H]3O[C@H]1C[C@H](N)[C@H](O)[C@H](C)O1` [DOXORUBICIN], for which the EC50 was determined as 0.03 µg/mL (≈ 0.0552 µM) in assay [1], 0.02 µg/mL (≈ 0.0368 µM) in assay [5], 0.02 µg/mL (≈ 0.0368 µM) in assay [3] and 0.03 µg/mL (≈ 0.0552 µM) in assay [4].
